Experimental findings from ChEMBL document CHEMBL1121966, “(2R*,3S*)-1-[125I]Iodo-2,3-bis(4-hydroxyphenyl)pentane ([125I]iodonorhexestrol) and (2R*,3S*)-1-[77Br]Bromo-2,3-bis(4-hydroxyphenyl)pentane ([77Br]bromonorhexestrol), two gamma-emitting estrogens that show receptor-mediated uptake by target tissues in vivo” (1982) are described below.

The assay in a line: Solvolytic stability of compound was measured relative to p-hydroxyphenethyl bromide. It counts as functional, Rattus norvegicus.

Each structure is given as a SMILES string.

`Oc1ccc(CCBr)cc1` came in with a 1/krel of 1.
